Results: US20220142967A1, “Methods and Compositions for the Treatment of Multiple Sclerosis” (SYMBIONYX PHARMACEUTICALS INC, priority 2018, published 2022)
Structures can show the parent of a compound that is named as a salt.

Experiments:
[1] = tested on: human fetal astrocytes; experiment: A1 v A2 marker activation, RNA-seq of H2O2-stimulated astrocytes; assay type: cell-based; conditions: 2.5 μM, 24 hrs, H2O2 (50 μM) stimulated
Description: The treated cells were stimulated with H2O2 (50 μM) for 20 min and the RNA extracted 1 day later and sequenced using the Illumina HiSeq 2000 with an average of 39.3 million reads per sample. Reads were mapped to the GHch38/hg38 genome. 13,968 protein-coding genes had detectable expression on average among the 6 samples. Differentially expressed genes (DEGs) were identified using negative binomial models with FDR threshold of <0.10 and fold change (FC) criteria (FC>1.30 or FC<0.77). Gene set enrichment testing was performed using public database annotations. Motif enrichment with respect to DEG up-stream regions was characterized using semiparametric generalized additive logistics models. The overlap between the identified DEGs and MS-associated genes, i.e., genes from MS patients and genes linked to inflammatory (A1) and ischemic (A2) astrogliosis.

[2] = tested on: human fetal astrocytes derived from cerebral cortex; experiment: Comparative RT-PCR evaluation of selected genes in astrocytes; assay type: cell-based
Description: Experiments were performed using human fetal astrocytes derived from cerebral cortex (cat. no. 882A-05f; Cell Applications, Sant Diego, Calif.). Cells were grown to subconfluence in human astrocyte growth medium (cat. no. 820-500, Cell Applications). […] Test materials were added to subconfluent cultures at a concentration of 2.5 μM and cells were incubated for 24 hours.
RNA was extracted following the incubation period using the RNAeasy Mini Plus kit (Qiagen, Hilden, Germany) and robotic Qiacube Connect station (Qiagen). Samples were shipped on dry ice to the Thermo Fisher Microarray Research Services Laboratory (Santa Clara, Calif.) for transcriptome analysis. RNA quality analysis was performed upon sample receipt using the NanoDrop Lite (Thermo Fisher Scientific, Waltham, Mass.). All samples had 260/280 nm absorbance ratios higher than 1.90, consistent with high-purity RNA.
The expression of selected genes was further evaluated using RT-PCR. cDNA was prepared using the AzuraQuant cDNA kit (Azura Genomics, Raynham, Mass.) and PCR reactions were performed using the BioRad iCycler iQ Detection System with Fast Green qPCR Master Mix—Fluor (Azura Genomics). PCR primers were purchased from Realtimeprimers (Elkins Park, Pa.). The ΔΔCt method [Livak K. J. and Schmittgen T. D. Analysis of relative gene expression data using real-time quantitative PCR and the 2(−Delta Delta C(T)) Method. Methods (San Diego, Calif.) 25(4):402-408, 2001]. was used to estimate fold changes with cycle threshold values normalized based upon the expression of glyceraldehyde-3-phosphate dehydrogenase (GAPDH).

Question: What does the source list for `COC(=O)/C=C/C(=O)O[C@H]1CO[C@H]2[C@@H]1OC[C@H]2OC(=O)/C=C/C(=O)OC` [IDMF, isosorbide di-(methyl fumarate)]?
Answer: ICAM1 expression [1]: downregulate; expression of genes linked to A2-polarization [1]: tended to increase the expression; expression of genes linked to pan-reactive gliosis [1]: decreasing; OSGIN1 expression ([2]; FIG. 11(B)): enhancing expression; expression of key MS-associated genes (IL-6, ICAM1, MALT1, TNFAIP3, IRF1, CXCL8) ([2]; FIGS. 11(C) through 11(H)): marked suppression
